Measurements: the NIST ThermoML archive (doi:10.1016/j.jct.2016.03.026)

Experiment: xn = mol fraction of the nth substance listed
Details: 273.15 K, Fluid (supercritical or subcritical phases), x1 = 0.97; for mass density: Vibrating tube method; for speed of sound: Frequency=5 MHz, Pulse-echo method

O=C=O [carbon dioxide] + CO
Details | mass density [kg/m3] | speed of sound [m/s]
14050 kPa | 992.7 | –
14075 kPa | 992.85 | –
14100 kPa | 992.93 | –
14125 kPa | 993.06 | –
14150 kPa | 993.17 | –
14175 kPa | 993.26 | –
14200 kPa | 993.38 | –
14225 kPa | 993.5 | –
14250 kPa | 993.58 | –
14275 kPa | 993.7 | –
14300 kPa | 993.82 | –
14325 kPa | 993.9 | –
14350 kPa | 994 | –
14375 kPa | 994.12 | –
14400 kPa | 994.23 | –
14425 kPa | 994.35 | –
14450 kPa | 994.42 | –
14475 kPa | 994.54 | –
14500 kPa | 994.65 | –
14525 kPa | 994.75 | –
14550 kPa | 994.85 | –
14575 kPa | 994.96 | –
14600 kPa | 995.07 | –
14625 kPa | 995.18 | –
14650 kPa | 995.29 | –
14675 kPa | 995.37 | –
14700 kPa | 995.5 | –
14725 kPa | 995.62 | –
14750 kPa | 995.7 | –
14775 kPa | 995.81 | –
14800 kPa | 995.94 | –
14825 kPa | 996.02 | –
14850 kPa | 996.12 | –
14875 kPa | 996.27 | –
14900 kPa | 996.34 | 688.9
14925 kPa | 996.43 | –
14950 kPa | 996.51 | –
14975 kPa | 996.65 | –
15000 kPa | 996.75 | –
15025 kPa | 996.84 | –
15050 kPa | 996.94 | –
15075 kPa | 997.08 | –
15100 kPa | 997.16 | –
15125 kPa | 997.24 | –
15150 kPa | 997.37 | –
15175 kPa | 997.49 | –
15200 kPa | 997.57 | –
15225 kPa | 997.66 | –
15250 kPa | 997.8 | –
15275 kPa | 997.89 | –
15300 kPa | 997.98 | –
15325 kPa | 998.14 | –
15350 kPa | 998.19 | –
15375 kPa | 998.3 | –
15400 kPa | 998.38 | –
15425 kPa | 998.5 | –
15450 kPa | 998.63 | –
15475 kPa | 998.71 | –
15500 kPa | 998.79 | –
15525 kPa | 998.89 | –
15550 kPa | 999.03 | –
15575 kPa | 999.11 | –
15600 kPa | 999.22 | –
15625 kPa | 999.34 | –
15650 kPa | 999.41 | –
15675 kPa | 999.52 | –
15700 kPa | 999.63 | –
15725 kPa | 999.76 | –
15750 kPa | 999.85 | –
15775 kPa | 999.93 | –
15800 kPa | 1000.03 | –
15825 kPa | 1000.09 | –
15850 kPa | 1000.25 | –
15875 kPa | 1000.33 | –
15900 kPa | 1000.44 | –
15925 kPa | 1000.5 | –
15950 kPa | 1000.59 | –
15975 kPa | 1000.74 | –
16000 kPa | 1000.82 | –
16025 kPa | 1000.92 | –
16050 kPa | 1001.03 | –
16075 kPa | 1001.14 | –
16100 kPa | 1001.23 | –
16125 kPa | 1001.34 | –
16150 kPa | 1001.44 | –
16175 kPa | 1001.55 | –
16200 kPa | 1001.64 | –
16225 kPa | 1001.73 | –
16250 kPa | 1001.84 | –
16275 kPa | 1001.95 | –
16300 kPa | 1002.05 | –
16325 kPa | 1002.16 | –
16350 kPa | 1002.26 | –
16375 kPa | 1002.35 | –
16400 kPa | 1002.44 | –
16425 kPa | 1002.55 | –
16450 kPa | 1002.64 | –
16475 kPa | 1002.73 | –
16500 kPa | 1002.82 | –
16525 kPa | 1002.92 | –
16550 kPa | 1003.07 | –
16575 kPa | 1003.15 | –
16600 kPa | 1003.23 | –
16625 kPa | 1003.31 | –
16650 kPa | 1003.43 | –
16675 kPa | 1003.55 | –
16700 kPa | 1003.63 | –
16725 kPa | 1003.75 | –
16750 kPa | 1003.86 | –
16775 kPa | 1003.93 | –
16800 kPa | 1004.01 | –
16825 kPa | 1004.09 | –
16850 kPa | 1004.25 | –
16875 kPa | 1004.31 | –
16900 kPa | 1004.4 | –
16925 kPa | 1004.53 | –
16950 kPa | 1004.6 | –
16975 kPa | 1004.73 | –
17000 kPa | 1004.82 | –
17025 kPa | 1004.89 | –
17050 kPa | 1005.04 | –
17075 kPa | 1005.11 | –
17100 kPa | 1005.21 | –
17125 kPa | 1005.3 | –
17150 kPa | 1005.42 | –
17175 kPa | 1005.49 | –
17200 kPa | 1005.63 | –
17225 kPa | 1005.7 | –
17250 kPa | 1005.78 | –
17275 kPa | 1005.9 | –
17300 kPa | 1006.03 | –
17325 kPa | 1006.1 | –
17350 kPa | 1006.19 | –
17375 kPa | 1006.3 | –
17400 kPa | 1006.36 | –
17425 kPa | 1006.5 | –
17450 kPa | 1006.55 | –
17475 kPa | 1006.68 | –
17500 kPa | 1006.76 | –
17525 kPa | 1006.86 | –
17550 kPa | 1006.92 | –
17575 kPa | 1007.06 | –
17600 kPa | 1007.11 | –
17625 kPa | 1007.24 | –
17650 kPa | 1007.37 | –
17675 kPa | 1007.42 | –
17700 kPa | 1007.56 | –
17725 kPa | 1007.61 | –
17750 kPa | 1007.74 | –
17775 kPa | 1007.82 | –
17800 kPa | 1007.92 | –
17825 kPa | 1008.05 | –
17850 kPa | 1008.1 | –
17875 kPa | 1008.22 | –
17900 kPa | 1008.28 | –
17925 kPa | 1008.41 | –
17950 kPa | 1008.47 | –
17975 kPa | 1008.58 | –
18000 kPa | 1008.63 | –
18025 kPa | 1008.76 | –
18050 kPa | 1008.81 | –
18075 kPa | 1008.93 | –
18100 kPa | 1009.05 | –
18125 kPa | 1009.17 | –
18150 kPa | 1009.21 | –
18175 kPa | 1009.33 | –
18200 kPa | 1009.44 | –
18225 kPa | 1009.49 | –
18250 kPa | 1009.61 | –
18275 kPa | 1009.68 | –
18300 kPa | 1009.76 | –
18325 kPa | 1009.88 | –
18350 kPa | 1009.93 | –
18375 kPa | 1010.03 | –
18400 kPa | 1010.15 | –
18425 kPa | 1010.26 | –
18450 kPa | 1010.33 | –
18475 kPa | 1010.41 | –
18500 kPa | 1010.52 | –
18525 kPa | 1010.58 | –
18550 kPa | 1010.7 | –
18575 kPa | 1010.82 | –
18600 kPa | 1010.88 | –
18625 kPa | 1010.99 | –
18650 kPa | 1011.1 | –
18675 kPa | 1011.15 | –
18700 kPa | 1011.25 | –
18725 kPa | 1011.35 | –
18750 kPa | 1011.46 | –
18775 kPa | 1011.49 | –
18800 kPa | 1011.59 | –
18825 kPa | 1011.7 | –
18850 kPa | 1011.81 | –
18875 kPa | 1011.88 | –
18900 kPa | 1011.94 | –
18925 kPa | 1012.05 | –
18950 kPa | 1012.15 | –
18975 kPa | 1012.26 | –
19000 kPa | 1012.37 | –
19025 kPa | 1012.45 | –
19050 kPa | 1012.49 | –
19075 kPa | 1012.6 | –
19100 kPa | 1012.7 | –
19125 kPa | 1012.77 | –
19150 kPa | 1012.83 | –
19175 kPa | 1012.93 | –
19200 kPa | 1013.04 | –
19225 kPa | 1013.15 | –
19250 kPa | 1013.25 | –
19275 kPa | 1013.27 | –
19300 kPa | 1013.37 | –
19325 kPa | 1013.48 | –
19350 kPa | 1013.58 | –
19375 kPa | 1013.61 | –
19400 kPa | 1013.72 | –
19425 kPa | 1013.82 | –
19450 kPa | 1013.91 | –
19475 kPa | 1013.95 | –
19500 kPa | 1014.05 | –
19525 kPa | 1014.15 | –
19550 kPa | 1014.24 | –
19575 kPa | 1014.34 | –
19600 kPa | 1014.44 | –
19625 kPa | 1014.47 | –
19650 kPa | 1014.56 | –
19675 kPa | 1014.66 | –
19700 kPa | 1014.76 | –
19725 kPa | 1014.86 | –
19750 kPa | 1014.88 | –
19775 kPa | 1014.98 | –
19800 kPa | 1015.08 | –
19825 kPa | 1015.19 | –
19850 kPa | 1015.29 | –
19875 kPa | 1015.31 | –
19900 kPa | 1015.41 | –
19910 kPa | – | 735.5
19925 kPa | 1015.5 | –
19950 kPa | 1015.6 | –
19975 kPa | 1015.7 | –
20000 kPa | 1015.77 | –
24940 kPa | – | 776.2
29980 kPa | – | 812.6
35030 kPa | – | 845.6
